# Where a name gives a salt, the structure may show the parent alone.
# Target: T1, human EP4 (hEP4) receptor (Homo sapiens, UniProt P35408)
# T1 construct: expressed in transfected cells; host or cells: HEK-293 T cells, transient co-transfection with polyethylenimine
# Assay: In vitro human EP4 functional antagonist activity using BRET biosensors (cAMP EPAC biosensor, TCS2510 stimulation)
# Assay type: cell-based
# Details: antagonist activity vs EC60 TCS2510, hEP4 in HEK-293 T cells
# In short: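 HEK-293T cells transiently co-transfected with hEP4 and EPAC cAMP BRET biosensor (luciferase/GFP), assayed 48 h later in HEPES-buffered saline after 1 h at 22 °C. After 5 min with compound, cells stimulated with EC60 TCS2510 and BRET read for 10 min; IC50 from 10-point, 4.5-log variable-slope fits, duplicate, two experiments.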
# T1 sequence (P35408 whole entry): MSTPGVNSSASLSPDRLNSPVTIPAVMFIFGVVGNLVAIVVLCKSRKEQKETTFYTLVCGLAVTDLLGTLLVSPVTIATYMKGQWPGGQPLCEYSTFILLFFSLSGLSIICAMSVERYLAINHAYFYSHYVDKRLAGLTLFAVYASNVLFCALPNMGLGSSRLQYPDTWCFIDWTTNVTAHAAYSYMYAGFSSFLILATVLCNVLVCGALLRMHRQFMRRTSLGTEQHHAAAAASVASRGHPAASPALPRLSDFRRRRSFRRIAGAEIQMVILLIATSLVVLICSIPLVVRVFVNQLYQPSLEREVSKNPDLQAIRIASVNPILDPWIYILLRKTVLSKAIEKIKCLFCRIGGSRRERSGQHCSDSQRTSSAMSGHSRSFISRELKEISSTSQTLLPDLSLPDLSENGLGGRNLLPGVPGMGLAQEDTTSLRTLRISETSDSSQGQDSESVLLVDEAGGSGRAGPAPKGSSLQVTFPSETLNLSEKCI
row,SMILES,IC50 [µM]
1,"C[C@H](NC(=O)C1(N2CC[C@@H](Oc3cccc(C(F)(F)F)c3)C2)CCOCC1)c1ccc(-c2nn[nH]n2)cc1 [Example 175, N—((S)-1-(4-(2H-Tetrazol-5-yl)phenyl)ethyl)-4-((R)-3-(3-(trifluoromethyl)phenoxy)pyrrolidin-1-yl)tetrahydro-2H-pyran-4-carboxamide, hydrochloride]",< 0.1
2,"C[C@H](NC(=O)C1(N2CC[C@@H](Oc3cccc(C(F)(F)F)c3)C2)CCOCC1)c1ccc(-c2cn[nH]c2)cc1 [Example 176, N—((S)-1-(4-(1H-Pyrazol-4-yl)phenyl)ethyl)-4-((R)-3-(3-(trifluoromethyl)phenoxy)pyrrolidin-1-yl)tetrahydro-2H-pyran-4-carboxamide, hydrochloride]",< 0.1
3,"C[C@H](NC(=O)C1(N2CC[C@@H](Oc3cccc(C(F)(F)F)c3)C2)CCOCC1)c1ccc(-c2ccn[nH]2)cc1 [Example 177, N—((S)-1-(4-(1H-Pyrazol-5-yl)phenyl)ethyl)-4-((R)-3-(3-(trifluoromethyl)phenoxy)pyrrolidin-1-yl)tetrahydro-2H-pyran-4-carboxamide, hydrochloride]",< 0.1
4,"C[C@H](NC(=O)C1(N2CC[C@@H](Oc3cccc(C(F)(F)F)c3)C2)CCOCC1)c1ccc(S(N)(=O)=O)cc1 [Example 178, N—((S)-1-(4-Sulfamoylphenyl)ethyl)-4-((R)-3-(3-(trifluoromethyl)phenoxy)pyrrolidin-1-yl)tetrahydro-2H-pyran-4-carboxamide, hydrochloride]",< 0.1
5,"C[C@H](NC(=O)C1(N2CC[C@@H](Oc3cccc(C(F)(F)F)c3)C2)CCOCC1)c1ccc(S(C)(=O)=O)cc1 [Example 179, N—((S)-1-(4-(Methylsulfonyl)phenyl)ethyl)-4-((R)-3-(3-(trifluoromethyl)phenoxy)pyrrolidin-1-yl)tetrahydro-2H-pyran-4-carboxamide, hydrochloride]",< 0.1
6,"C[C@H](NC(=O)C1(N2CC[C@@H](Oc3cccc(C(F)(F)F)c3)C2)CCOCC1)c1ccc(S(C)(=N)=O)cc1 (stereo partly drawn) [Example 180, N-((1S)-1-(4-(S-Methylsulfonimidoyl)phenyl)ethyl)-4-((R)-3-(3-(trifluoromethyl)phenoxy)pyrrolidin-1-yl)tetrahydro-2H-pyran-4-carboxamide, hydrochloride]",< 0.1
7,"C[C@H](NC(=O)C1(N2CC[C@@H](Oc3cccc(C(F)(F)F)c3)C2)CCOCC1)c1ccc(O)cc1 [Example 181, N—((S)-1-(4-Hydroxyphenyl)ethyl)-4-((R)-3-(3-(trifluoromethyl)phenoxy)pyrrolidin-1-yl)tetrahydro-2H-pyran-4-carboxamide, hydrochloride]",< 1
8,"C[C@H](NC(=O)C1(N2CC[C@@H](Oc3cccc(C(F)(F)F)c3)C2)CCOCC1)c1ccc(C#N)cc1 [Example 182, N—((S)-1-(4-Cyanophenyl)ethyl)-4-((R)-3-(3-(trifluoromethyl)phenoxy)pyrrolidin-1-yl)tetrahydro-2H-pyran-4-carboxamide, hydrochloride]",< 0.1
9,"C[C@H](NC(=O)C1(N2CC[C@@H](Oc3cccc(C(F)(F)F)c3)C2)CCOCC1)c1ccccc1 [Example 183, N—((S)-1-Phenylethyl)-4-((R)-3-(3-(trifluoromethyl)phenoxy)pyrrolidin-1-yl)tetrahydro-2H-pyran-4-carboxamide, hydrochloride]",< 1
10,"C[C@H](NC(=O)C1(N2CC[C@@H](Oc3cccc(C(F)(F)F)c3)C2)CCOCC1)c1ccncc1 [Example 184, N—((S)-1-(Pyridin-4-yl)ethyl)-4-((R)-3-(3-(trifluoromethyl)phenoxy)pyrrolidin-1-yl)tetrahydro-2H-pyran-4-carboxamide, hydrochloride]",< 1
11,"C[C@H](NC(=O)C1(N2CC[C@@H](Oc3cccc(C(F)(F)F)c3)C2)CCOCC1)c1cccnc1 [Example 185, N—((S)-1-(Pyridin-3-yl)ethyl)-4-((R)-3-(3-(trifluoromethyl)phenoxy)pyrrolidin-1-yl)tetrahydro-2H-pyran-4-carboxamide, hydrochloride]",< 1
12,"C[C@H](NC(=O)C1(N2CC[C@@H](Oc3cccc(C(F)(F)F)c3)C2)CCOCC1)c1ccccn1 [Example 186, N—((S)-1-(Pyridin-2-yl)ethyl)-4-((R)-3-(3-(trifluoromethyl)phenoxy)pyrrolidin-1-yl)tetrahydro-2H-pyran-4-carboxamide, hydrochloride]",< 1
13,"C[C@H](NC(=O)C1(N2CC[C@@H](Oc3cccc(C(F)(F)F)c3)C2)CCOCC1)c1ccc(F)cc1 [Example 187, N—((S)-1-(4-Fluorophenyl)ethyl)-4-((R)-3-(3-(trifluoromethyl)phenoxy)pyrrolidin-1-yl)tetrahydro-2H-pyran-4-carboxamide, hydrochloride]",< 1
14,"C[C@H](NC(=O)C1(N2CC[C@@H](Oc3cccc(C(F)(F)F)c3)C2)CCOCC1)c1cccc(F)c1 [Example 188, N—((S)-1-(3-Fluorophenyl)ethyl)-4-((R)-3-(3-(trifluoromethyl)phenoxy)pyrrolidin-1-yl)tetrahydro-2H-pyran-4-carboxamide, hydrochloride]",< 1
15,"C[C@H](NC(=O)C1(N2CC[C@@H](Oc3cccc(C(F)(F)F)c3)C2)CCOCC1)c1ccccc1F [Example 189, N—((S)-1-(2-Fluorophenyl)ethyl)-4-((R)-3-(3-(trifluoromethyl)phenoxy)pyrrolidin-1-yl)tetrahydro-2H-pyran-4-carboxamide, hydrochloride]",< 1
16,"C[C@H](NC(=O)C1(N2CC[C@@H](Oc3cccc(C(F)(F)F)c3)C2)CCOCC1)c1ccc(Br)cc1 [Example 190, N—((S)-1-(4-Bromophenyl)ethyl)-4-((R)-3-(3-(trifluoromethyl)phenoxy)pyrrolidin-1-yl)tetrahydro-2H-pyran-4-carboxamide, hydrochloride]",< 1
17,"C[C@H](NC(=O)C1(N2CC[C@@H](Oc3cccc(C(F)(F)F)c3)C2)CCOCC1)c1cccc(Cl)c1 [Example 191, N—((S)-1-(3-Chlorophenyl)ethyl)-4-((R)-3-(3-(trifluoromethyl)phenoxy)pyrrolidin-1-yl)tetrahydro-2H-pyran-4-carboxamide, hydrochloride]",< 1
18,"C[C@H](NC(=O)C1(N2CC[C@@H](Oc3cccc(C(F)(F)F)c3)C2)CCOCC1)c1ccccc1Cl [Example 192, N—((S)-1-(2-Chlorophenyl)ethyl)-4-((R)-3-(3-(trifluoromethyl)phenoxy)pyrrolidin-1-yl)tetrahydro-2H-pyran-4-carboxamide, hydrochloride]",< 1
19,"Cc1ccc([C@H](C)NC(=O)C2(N3CC[C@@H](Oc4cccc(C(F)(F)F)c4)C3)CCOCC2)cc1 [Example 193, N—((S)-1-(4-Methylphenyl)ethyl)-4-((R)-3-(3-(trifluoromethyl)phenoxy)pyrrolidin-1-yl)tetrahydro-2H-pyran-4-carboxamide, hydrochloride]",< 1
20,"Cc1cccc([C@H](C)NC(=O)C2(N3CC[C@@H](Oc4cccc(C(F)(F)F)c4)C3)CCOCC2)c1 [Example 194, N—((S)-1-(3-Methylphenyl)ethyl)-4-((R)-3-(3-(trifluoromethyl)phenoxy)pyrrolidin-1-yl)tetrahydro-2H-pyran-4-carboxamide, hydrochloride]",< 1

# Reference: patent US12527779B2, “Prostaglandin E2 (PGE2) EP4 receptor antagonists” (Domain Therapeutics, priority 2019, dated 2026)
